Non-standard residues stand in square brackets, D forms with d. No end group written: not given here. pGlu = O=C1CC[C@@H](C(=O)O)N1
Legend:
[1] = cited from earlier work
[2] = Sensory grading (0 to 9) of flavor and sweetness of chocolate formulations with versus without brazzein; settings: chocolate with Reb D, Reb E, Reb I, Reb M, with vs without brazzein; FIG. 2B
Experimental: Formulations comprising brazzein and chocolate were developed, and their relative flavor and sweetness were assessed. Sweetness and flavor were graded across different factors on a scale from 0 (minimum) to 9 (maximal) and assessed for the different formulations. Different factors tested include sweet taste, bitter taste, chocolate flavor, dairy flavor, sweet aromatics, and green/vegetative. The formulations tested comprise brazzein, Reb D, Reb E, Reb I, Reb M and chocolate compared to a control (chocolate comprising Reb D, Reb E, Reb I, and Reb M).
The sweetness is enhanced by having the early onset and slow fade more like sugar than chocolate that is only sweetened with Reb D, Reb E, Reb I, and Reb M. Therefore, including brazzein in food compositions, such as chocolate, enhance the flavor and sweetness of the composition.

[3] = Sweetness grading of sweetener solutions on a scale from 0 to 15 over 7 days; settings: for Sweetness score Day 1 / Sweetness score Day 4 / Sweetness score Day 5 / Sweetness score Day 6 / Sweetness score Day 7: scale of 0-15
Experimental: Formulations comprising brazzein and rebaudiosides were developed and their relative sweetness was assessed. Sweetness was graded on a scale from 0 (no sweetness) to 15 (maximal sweetness) and assessed for the different formulations over a period of 7 days.

[4] = cited from earlier work; remark: listed apart in the source

Row | Molecule | Sweetness score Day 1 [3] | Sweetness score Day 4 [3] | Sweetness score Day 5 [3] | Sweetness score Day 6 [3] | Sweetness score Day 7 [3] | further results
1 | brazzein: natural peptide sweetener first isolated from the fruit of Pentadiplandra brazzeana Baillon (SEQ ID NO: 12) (QDKCKKVYENYPVSKCQLANQCNYDCKLDKHARSGECFYDEKRNLQCICDYCEY; Pentadiplandra brazzeana Baillon) |  |  |  |  |  | Times sweeter than sucrose on a weight basis ([1]; weight basis): 500-2000 times; Astringency [2]: decreased; Bitter taste at 120 seconds [2]: decreased; Effect on perceived sweetness profile of the solution ([3]; 25 ppm brazzein added to a 5% sucrose solution): slightly enhanced; Sweetness over the 7-day period ([3]; 25 ppm brazzein in 5% sucrose solution): remained stable; Effect on sweetness of a Reb M solution ([3]; brazzein added to Reb M solution with SE of 5% sucrose, compared to sucrose plus brazzein): synergistically enhanced; Sweet taste after incubation at 80° C. for 4.5 hours ([4]; 80° C., 4.5 hours, pH range of 2.5-8.0): sweet taste remains; Sweet taste after incubation at 98° C. for 2 hours ([4]; 98° C., 2 hours): sweet taste remains
2 | OC[C@H]1O[C@@](CO)(O[C@H]2O[C@H](CO)[C@@H](O)[C@H](O)[C@H]2O)[C@@H](O)[C@@H]1O [Sucrose (5%), Sucrose] | 5 | 5 | 5 | 5 | 5 | 
3 | C=C1C[C@@]23CC[C@H]4[C@@](C)(CCC[C@@]4(C)C(=O)O[C@@H]4O[C@H](CO)[C@@H](O)[C@H](O[C@@H]5O[C@H](CO)[C@@H](O)[C@H](O)[C@H]5O)[C@H]4O[C@@H]4O[C@H](CO)[C@@H](O)[C@H](O)[C@H]4O)[C@@H]2CC[C@]1(O[C@@H]1O[C@H](CO)[C@@H](O)[C@H](O[C@@H]2O[C@H](CO)[C@@H](O)[C@H](O)[C@H]2O)[C@H]1O[C@@H]1O[C@H](CO)[C@@H](O)[C@H](O)[C@H]1O)C3 [Reb M at SE of 5% sucrose, Rebaudioside M] | 5 | 5 | 5 | 5 | 5 | 
4 | PyrE-bra: major form brazzein, pyroglutamic acid at N-terminus, 54 amino acid residues ([pGlu]DKCKKVYENYPVSKCQLANQCNYDCKLDKHARSGECFYDEKRNLQCICDYCEY; cysteine pairing not given here; UniProt P56552 1-54, looked up) |  |  |  |  |  | Times sweeter than 10% sucrose solution ([1]; vs 10% sucrose solution): 500 times

From US20230345984A1, “SWEETENERS” (Sweegen, Inc, priority 2022, published 2023)
